Experimental data published in patent publication US20160031878A1, “RADIOLABELED COMPOUNDS” (Hoffmann-La Roche Inc., priority 2013, published 2016).

Molecular target: T1, human PDE10A full length (Homo sapiens, UniProt Q9Y233)
T1 construct: purchased Enzo Life Science, Lausen, Switzerland SE-534
Assay: human PDE10A full length Scintillation Proximity Assay (SPA)
Assay type: biochemical
Settings: 50 nM cGMP + 50 nM [3H]-cGMP, 20 min at room temperature, read-out: PDE10A inhibition IC50
Procedure: The following test was carried out in order to determine the activity of the compounds of the present invention. PDE10A activity of the compounds of the present invention was determined using a Scintillation Proximity Assay (SPA)-based method similar to the one previously described (Fawcett, L. et al., Proc. Natl. Acad. Sci. USA 2000, 97(7), 3702-3707).
The human PDE10A full length assay was performed in 96-well micro titer plates. The reaction mixture of 50 μl contained 20 mM HEPES pH=7.5/10 mM MgCl2/0.05 mg/ml BSA (Sigma cat. # A-7906), 50 nM cGMP (Sigma, cat. # G6129) and 50 nM [^3H]-cGMP (GE Healthcare, cat. # TRK392 S.A. 13.2 Ci/mmol), 3.75 ng/well PDE10A enzyme (Enzo Life Science, Lausen, Switzerland cat # SE-534) with or without a specific test compound. A range of concentrations of the potential inhibitor was used to generate data for calculating the concentration of inhibitor resulting in 50% of the effect (e.g. IC50, the concentration of the competitor inhibiting PDE10A activity by 50%). Non-specific activity was tested without the enzyme. The reaction was initiated by the addition of the substrate solution (cGMP and [^3H]-cGMP) and allowed to progress for 20 minutes at room temperature. […] Afterwards, radioactive counts were measured on a Perkin Elmer TopCount Scintillation plate reader.

T1 sequence (Q9Y233 1-779 isoform Q9Y233-1): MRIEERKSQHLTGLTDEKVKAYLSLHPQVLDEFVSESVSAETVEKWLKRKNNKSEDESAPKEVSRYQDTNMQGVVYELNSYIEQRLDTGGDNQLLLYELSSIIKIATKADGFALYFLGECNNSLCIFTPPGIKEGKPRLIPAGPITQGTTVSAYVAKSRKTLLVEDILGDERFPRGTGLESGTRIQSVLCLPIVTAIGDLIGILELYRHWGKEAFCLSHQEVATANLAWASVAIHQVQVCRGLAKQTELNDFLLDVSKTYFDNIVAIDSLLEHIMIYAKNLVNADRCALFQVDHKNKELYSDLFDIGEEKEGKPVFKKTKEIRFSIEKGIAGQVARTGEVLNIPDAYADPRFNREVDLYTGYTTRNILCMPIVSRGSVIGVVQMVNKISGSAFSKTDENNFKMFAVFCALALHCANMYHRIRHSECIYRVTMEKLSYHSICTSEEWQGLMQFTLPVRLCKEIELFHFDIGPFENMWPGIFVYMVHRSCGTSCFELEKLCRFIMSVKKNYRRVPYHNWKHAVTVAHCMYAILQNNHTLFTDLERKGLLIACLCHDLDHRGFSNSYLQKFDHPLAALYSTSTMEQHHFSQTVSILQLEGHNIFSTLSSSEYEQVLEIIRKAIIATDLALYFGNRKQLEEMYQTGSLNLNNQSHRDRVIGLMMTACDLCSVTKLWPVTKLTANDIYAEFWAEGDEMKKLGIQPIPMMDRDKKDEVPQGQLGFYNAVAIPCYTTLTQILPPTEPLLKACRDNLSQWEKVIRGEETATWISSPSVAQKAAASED

| IC50 [nM] | Structure (SMILES) |
| --- | --- |
| 5.1 | COc1cccc(-c2nc3cc(NC(=O)c4c(C(=O)N5CCOCC5)cnn4C)ccn3n2)c1 [Compound 21, 2-Methyl-4-(morpholine-4-carbonyl)-2H-pyrazole-3-carboxylic acid [2-(3-methoxy-phenyl)-[1,2,4]triazolo[1,5-a]pyridin-7-yl]-amide] |
| 0.94 | CN(CCF)C(=O)c1cnn(C)c1C(=O)Nc1ccn2nc(-c3ccccc3)nc2c1 [Compound 4, 2-methyl-2H-pyrazole-3,4-dicarboxylic acid 4-[(2-fluoro-ethyl)-methyl-amide]3-[(2-phenyl-[1,2,4]triazolo[1,5-a]pyridin-7-yl)-amide]] |
